Data as given in ChEMBL document CHEMBL3400089, “Studies on antimicrobial effects of four ligands and their transition metal complexes with 8-mercaptoquinoline and pyridine terminal groups” (2015).
In brackets after ≈: the same amount, converted by molar mass. Structures can show the parent of a compound that is named as a salt.

How the values were obtained:
Assay type in all cases: functional
Staphylococcus aureus = experiment: Antimicrobial activity against Staphylococcus aureus ATCC 27154 after 24 hrs by two fold serial microdilution method; settings: ATCC 27154, 24 h
Pseudomonas aeruginosa = experiment: Antimicrobial activity against Pseudomonas aeruginosa after 24 hrs by two fold serial microdilution method
Sporosarcina ureae = experiment: Antimicrobial activity against Sarcina ureae after 24 hrs by two fold serial microdilution method
Escherichia coli = experiment: Antimicrobial activity against Escherichia coli ATCC 25922 after 24 hrs by two fold serial microdilution method; settings: ATCC 25922, 24 h
[1] = tested on: Fusarium oxysporum f. sp. cubense; experiment: Antimicrobial activity against Fusarium oxysporum f. sp. cubense after 48 hrs by two fold serial microdilution method
Saccharomyces cerevisiae = experiment: Antimicrobial activity against Saccharomyces cerevisiae after 48 hrs by two fold serial microdilution method
Aspergillus niger = experiment: Antimicrobial activity against Aspergillus niger after 48 hrs by two fold serial microdilution method

| Compound | MIC (Staphylococcus aureus) | MIC (Pseudomonas aeruginosa) | MIC (Sporosarcina ureae) | MIC (Escherichia coli) | MIC [1] | MIC (Saccharomyces cerevisiae) | MIC (Aspergillus niger) |
| --- | --- | --- | --- | --- | --- | --- | --- |
| c1cc(CSc2cccc3cccnc23)nc(CSc2cccc3cccnc23)c1 | > 117 µM | > 117 µM | > 117 µM | 7.35 µM (≈ 3.13 µg/mL) | – | – | – |
| c1cnc2c(SCc3ccncc3)cccc2c1 | > 198 µM | > 198 µM | > 198 µM | 24.8 µM (≈ 6.26 µg/mL) | – | – | – |
| c1ccc(CSc2cccc3cccnc23)nc1 | > 198 µM | > 198 µM | > 198 µM | 49.5 µM (≈ 12.5 µg/mL) | – | – | – |
| CC1(C)S[C@@H]2[C@H](NC(=O)[C@H](N)c3ccccc3)C(=O)N2[C@H]1C(=O)O [AMPICILLIN] | 69.4 µM (≈ 24.2 µg/mL) | 17.4 µM (≈ 6.08 µg/mL) | 17.4 µM (≈ 6.08 µg/mL) | 34.7 µM (≈ 12.1 µg/mL) | – | – | – |
| NYSTATIN | – | – | – | – | 28.2 µM | 14.1 µM | 14.1 µM |
| c1cncc(CSc2cccc3cccnc23)c1 | > 198 µM | > 198 µM | > 198 µM | 99.1 µM (≈ 25 µg/mL) | > 495 µM | > 495 µM | > 495 µM |
| CN[C@@H]1[C@H](O[C@H]2[C@H](O[C@H]3[C@H](O)[C@@H](O)[C@H](N=C(N)N)[C@@H](O)[C@@H]3N=C(N)N)O[C@@H](C)[C@]2(O)C=O)O[C@@H](CO)[C@H](O)[C@H]1O [STREPTOMYCIN SULFATE] | 1.07 µM | 1.07 µM | 2.14 µM | 2.14 µM | – | – | – |
